How the values were obtained:
β-actin = assay: Western blotting of β-actin in fibroblasts (Test Example 3-1); type: cell-based, human; settings: 0, 10, 100 mg/mL trehalose in medium, 24 hours
Experimental: (§1) The cells were further DNA-stained with PI and subjected to FCM, and the proportion of each cell cycle was examined.
(§2) (3) Furthermore, proteins were extracted from the fibroblasts obtained in (1) using RIPA buffer (1% protein inhibitor (manufactured by SIGMA)+Phosphatase Inhibitor cocktail (manufactured by SIGMA)). Then, 10 μg of protein per sample was separated by SDS-PAGE by a conventional method, transferred to a PVDF membrane, and then subjected to Western blotting. Phosphorylated ERK1/2 and phosphorylated AKT were detected by ECL Prime Western Blotting Detection Reagent (manufactured by GE Healthcare), using Phospho-p44/p42 MAPK (Erk1/2) (Thr202/Tyr204) (D13.14.4E) XP Rabbit mAb (#4300, Cell Signaling) and Phospho-Akt (Ser473) antibody (#9271, manufactured by Cell Signaling Technology) as a primary antibody, and an anti-rabbit IgG antibody and an anti-mouse IgG antibody manufactured by PROMEGA were used as secondary antibodies, and visualized by Image Quant LAS4010 (manufactured by GE Healthcare).

[1] = tested on: NHDF (normal human skin fibroblasts); assay: Monolayer culture of fibroblasts, optical microscope observation (Test Example 3-1); type: cell-based; settings: 24 hours monolayer
[2] = tested on: fibroblasts of the dermal tissue layer of three-dimensional cultured skin; assay: Cell proportion per cell cycle by flow cytometry (FCM), PI staining (Test Example 1); type: cell-based, human
Experimental: • (5) Of the obtained three-dimensional cultured skin, a dermal tissue layer composed of fibroblasts was separated and DNA-stained with propidium iodide (PI). Next, the proportion of fibroblasts for each cell cycle was analyzed by FCM using Cycle TEST PLUS DNA Reagent Kit (manufactured by BD).

[3] = tested on: AKT (Ser473 phosphorylated); assay: Western blotting of phosphorylated AKT in fibroblasts (Test Example 3-1); type: cell-based, human; settings: 0, 10, 100 mg/mL trehalose in medium, 24 hours
Experimental: as §1, §2

[4] = tested on: EREG, ARG2, CCL2, IL1RN, PGF, SPP1, VEGFA, AREG and DPT mRNA; assay: qPCR of genes in monolayer fibroblasts, 24 hours (Test Example 3-3); type: cell-based, human; settings: 100 mg/mL trehalose (Treha 100)
Experimental: In the same manner as in Test Example 3-2, NHDF was cultured in 1% FCS and 1% ABAM-containing DMEM medium containing 0, 30, or 100 mg/mL trehalose or hyaluronic acid oligosaccharide 4mer (HA4) (product code 11006, manufactured by Cosmo Bio Co., Ltd.) for 24 hours, and RNA was recovered from the cells. Also, as a control, RNA was recovered from fibroblasts before treatment (0 h in FIG. 9). The obtained sample was subjected to the same operation as in Test Example 3-2, and qPCR for genes EREG, ARG2, CCL2, IL1RN, PGF, SPP1, VEGFA, AREG and DPT was performed. GAPDH was used as a reference gene.

[5] = tested on: wound with a diameter of 6 mm on the back of C57BL/6 mice; assay: In vivo test of effect of trehalose on skin wound (Test Example 6); design: species or system mouse
Experimental: In order to verify an effect of trehalose on skin wounds, in vivo test using mice was performed. The method is shown below. • (1) 15 week old C57BL/6 mice were anesthetized, the back was extensively depilated, then the skin of the back was pinched and overlaid, and a wound with a diameter of 6 mm was prepared with a biopsy trepan. • (2) Wound mice were divided into 2 groups of 6 mice each, and 100 mg of an agent composed only of Vanicream (Pharmaceutical Specialties, INC) as a base was applied to a control group, and 100 mg of an agent composed of 10% by mass trehalose and Vanicream as a base was applied to a trehalose treatment group once a day. • (3) Images of each wound up to 9 days after wound formation and the area of each wound were recorded, respectively.

[6] = tested on: human normal skin keratinocytes on collagen gel containing normal human skin fibroblasts (NHDF); assay: Three-dimensional cultured skin on a sugar-containing dermal cell structure (Test Example 1); type: cell-based
Experimental: Subsequently, about 1 mL of the gel obtained was poured into a transwell-collagen coated insert (catalog number: 3492, manufactured by Costar; pore size: 3.0 μm, surface area: 4.67 cm^2), which is a cell culture insert, and allowed to stand in an incubator for 5 minutes or more. 5 mL of DMEM containing 10 v/v % FCS and 1 v/v % ABAM (Antibiotics-Antimycotic solution, 100×, manufactured by ThermoFisher Scientific Inc.) in which normal human skin fibroblasts (NHDF, manufactured by Cambrex Corporation) were suspended at a cell density of 5×10^5 cells/mL was added to 29 mL of the gel solution I. About 3.5 mL of a gel solution containing the cells was added to the cell culture insert, and the mixture was allowed to stand in a 37° C. incubator for 30 minutes to gel.
• (2) Next, the collagen gel (layered dermal cell structure) containing NHDF was pre-cultured for 5 days using a DMEM medium containing 50 μg/ml ascorbic acid, 10 v/v % FCS, and 1 v/v % ABAM. Next, human normal skin keratinocytes suspended in MCDB medium were seeded on the collagen gel surface so as to be 1.28×10^5 cells/cm^2, and a medium obtained by mixing equal amounts of MCDB Type-II medium (Growth Medium 2 in JP-B2-3066624) and EGM was added to an external liquid of the cell culture insert and the inside of the insert, followed by culturing at 37° C. for 2 days.
• (3) The medium was replaced with a cornification medium (CM medium), and the cell culture insert was placed such that a porous membrane of the cell culture insert was located at a gas-liquid interface of the cornification medium. In this state, the cells were subjected to gas-liquid interface culture at 37° C. for 7 to 14 days to induce differentiation, thereby obtaining three-dimensional cultured skin. The medium was replaced every two days from the start of the culture.

[7] = Trehalose concentration 100 mg/mL, n = 2, averages
[8] = culture to which trehalose was added

OC[C@H]1O[C@H](O[C@H]2O[C@H](CO)[C@@H](O)[C@H](O)[C@H]2O)[C@H](O)[C@@H](O)[C@@H]1O [trehalose, α, α-trehalose]
synthesis amount of β-actin (β-actin): increased depending on the amount of trehalose
increase in the number of cells ([1]; 10 mg/mL trehalose): slightly suppressed
appearance of damage to cells ([1]; 100 mg/mL trehalose): no appearance of any damage
cell morphology ([1]; 100 mg/mL trehalose): the number of spindle-shaped cells was large
increase in the number of cells ([1]; 100 mg/mL trehalose): further suppressed
proportions of fibroblasts in S phase and G2 phase ([2]; 100 mg/mL vs 0 mg/mL trehalose): significantly increased
Proportion of cells in cell cycle, G1 [2, 7]: 62.5%
Proportion of cells in cell cycle, G2 [2, 7]: 14.0%
Proportion of cells in cell cycle, S [2, 7]: 15.3%
phosphorylation of AKT [3]: promoted as the concentration of trehalose in the medium increases
mRNA expression levels of genes EREG, ARG2, CCL2, IL1RN, PGF, SPP1, VEGFA, AREG and DPT compared to vehicle [4]: remarkably increased
recovery of wounds compared to control group ([5]; 100 mg of agent of 10% by mass trehalose and Vanicream, applied once a day): significantly faster
day on which wound epithelialized ([5]; 10% by mass trehalose in Vanicream, once a day): 4 days
wound area ([5]; 10% by mass trehalose in Vanicream, once a day, after 1 day): remarkably reduced
difference between groups in wound area (two-way ANOVA, p<0.001) ([5]; each point of days 2 to 6, n=6 in each group): significant differences
area of the epithelial tissue layer formed ([6]; 10 mg/mL trehalose added to collagen gel containing fibroblasts, compared to no trehalose): slightly enlarged
area of the epithelial tissue layer formed ([6]; 100 mg/mL trehalose added to collagen gel containing fibroblasts): extended to the outer edge of the insert and further expanded to protrude to the outside of the insert
contraction of the collagen gel [6, 8]: not observed
wrinkles and rumples of the sheet-like epithelial tissue layer [6, 8]: without wrinkles and rumples
